Test results reported in patent US20200291100A1, “TREATMENT OF AGE-RELATED AND MITOCHONDRIAL DISEASES BY INHIBITION OF HIF-1 ALPHA FUNCTION” (President and Fellows of Harvard College, priority 2012, published 2020).

Key:
Assay type in all cases: cell-based, mouse
[1] = tested on: C2C12 cells; assay: SIRT1 inhibition with EX-527 in C2C12 cells; settings: 10 μM EX-527, 12 h
Method: Having shown that HIF-1α stabilization was sufficient to induce genome asynchrony, it was next tested whether it was necessary. […] Knockdown of HIF-1α in C2C12 cells treated with the SIRT1 inhibitor EX-527 prevented genome asynchrony and decline in mitochondrial function, as evidenced by the maintenance of mtDNA content (FIG. 7F), mitochondrial ETC gene expression (FIG. 7G), mitochondrial membrane potential ([…]) and ATP levels (FIG. 7I).
C2C12 cell line (ATCC) was cultured in low glucose Dulbecco's modified eagle medium (DMEM) (Invitrogen) supplemented with 10% FBS (Invitrogen) and a mix of antibiotic and antimycotic (Invitrogen). To inhibit SIRT1, cells were treated the vehicle (0.001% DMSO) or 10 μM EX-527 (Tocris) for 12 h. C2C12 myoblasts were infected with an empty or SIRT1 adenovirus as described before (Gerhart-Hines et al., 2007) and the media was replaced with fresh DMEM for additional 48 h, after that the cells were treated as described before. To test the effects of hypoxia and HIFα stabilization in genome asyncrony, C2C12 myoblasts were exposed to 1% oxygen for 16 h or treated with the vehicle (0.001% DMSO) or DMOG (Cayman) for the same period of time.

[2] = tested on: PGC-1α/β KO myotubes; assay: EX-527 in PGC-1α/β KO myotubes reconstituted with WT or T177A/S538A PGC-1α, qPCR; settings: EX-527 48 h
Method: (§1) RNA from skeletal muscle tissue and C2C12 cells were extracted with RNeasy mini kit (Qiagen) according to the instructions and quantified using the NanoDrop 1000 spectrophotometer (Thermo Scientific). cDNA was synthesized with the iSCRIP cDNA synthesis kit (BioRad) using 600 ng of RNA. Quantitative RT-PCR reactions were performed using 1 μM of primers and LightCycler® 480 SYBR Green Master (Roche) on an LightCycler® 480 detection system (Roche). Calculations were performed by a comparative method (2-ΔCT) using 18S as an internal control. For mtDNA analysis, total DNA was extracted with DNeasy blood and tissue kit (Qiagen). mtDNA was amplified using primers specific for the mitochondrial cytochrome c oxidase subunit 2 (COX2) gene and normalized to genomic DNA by amplification of the ribosomal protein s18 (rps18) nuclear gene. Primers were designed using the IDT software (IDT) and the primer sequences can be found in Table 1.
AMPK-DN blocked the decrease in nuclear-encoded genes observed 48 h after treatment with OHT, but not the decline in mitochondrial-encoded genes (FIG. 13G). In order to determine if this AMPK affect is through PGC-1α PGC-1α/β KO myotubes were reconstituted with either a WT PGC-1α or an AMPK insensitive version of PGC-1α (PGC-1α T177A/S538A) (FIG. 20F). […]

[3] = tested on: primary myoblasts; assay: Lactate treatment of primary WT myoblasts, NAD+/NADH ratio and HIF-1α immunoblot; settings: 10 mM lactate, 24 h
Text: FIGS. 21A-21N provide additional data related to the content of FIG. 14. FIG. 21A depicts HIF-1α target genes (PGK-1, Glut1, PDK1 and Vegfa) expression in gastrocnemius of WT and SIRT1 KO mice. Relative expression values were normalized to WT mice (n=5). FIG. 21B depicts hypoxia response element activity in primary myoblasts isolated from WT and SIRT1 KO mice and treated with or without DMOG. Relative luciferase activity was normalized to WT cells (n=6, *p<0.05 versus WT). FIG. 21C depicts a representative immunoblot of HIF-1a and Tubulin in PGC-1α/β KO myotubes treated with adenovirus overexpressing SIRT1 or empty vector as well as treatment with DMSO or with HIF stabilizing compound DMOG. FIG. 21D depicts NAD+/NADH ration measured in primary WT myoblasts treated with either 10 mM pyruvate, 10 mM lactate or vehicle for 24 h (n=4). […] FIG. 21J depicts mitochondrial DNA content analyzed by qPCR in control, HIF-1α DPA or HIF-2α DPA C2C12 cells treated with adenovirus overexpressing SIRT1 or empty vector. […] FIG. 21K depicts ARNT mRNA analyzed by qPCR in C2C12 cells infected with ARNT or nontargeting shRNA. […] FIG. 21L depicts mitochondrial DNA content analyzed by qPCR in C2C12 cells infected with ARNT or nontargeting shRNA. […] FIG. 21M depicts ND1, Cytb, COX1 and ATP6 mRNA analyzed by qPCR in C2C12 cells infected with ARNT or nontargeting shRNA. […] Values are expressed as mean±SEM. […]

[4] = tested on: primary PGC-1α/β KO myotubes; assay: NMN with or without HIF stabilizing compounds in PGC-1α/β KO myotubes, qPCR of mitochondrially-encoded ETC genes; settings: HIF stabilizing compound added to NMN-treated cells; 1 mM DMOG or 10 μM DFO, 12 hours
Method: As a functional test of whether NMN reverses genome asynchrony by depleting cells of HIF-1α, primary PGC-1α/β KO myotubes were incubated with NMN in the presence and absence of the HIF stabilizing compounds DMOG and DFO. […] Primary myoblasts cells were isolated from WT, SIRT1 KO (Price et al., 2012) and PGC-1α/β KO (Zechner et al., 2010) mice as previously described (Price et al., 2012). WT and PGC-1α/β KO primary myoblasts were plated and allowed to differentiate into myotubes by replacing the media with low glucose DMEM supplemented with 2% horse serum (Sigma-Aldrich) for 4 days. After the differentiation the cells were infected with empty vector or flag-SIRT1 adenovirus as described before ([…] al., 2007). Media was replaced with fresh DMEM supplemented with 2% horse serum (Sigma-Aldrich) for an additional 48 hr and, after that the cells were harvested for the different assays as described. […] Quantitative RT-PCR reactions were performed using 1 μM of primers and LightCycler® 480 SYBR Green Master (Roche) on an LightCycler® 480 detection system (Roche). Calculations were performed by a comparative method (2-ΔCT) using 18S as an internal control. For mtDNA analysis, total DNA was extracted with DNeasy blood and tissue kit (Qiagen). mtDNA was amplified using primers specific for the mitochondrial cytochrome c oxidase subunit 2 (COX2) gene and normalized to genomic DNA by amplification of the ribosomal protein s18 (rps18) nuclear gene. Primers were designed using the IDT software (IDT) and the primer sequences can be found in Table 1.

[5] = tested on: PGC-1α/β knockout myotubes; assay: HIF stabilizing compounds in PGC-1α/β knockout myotubes with or without SIRT1 overexpression; settings: SIRT1 adenovirus; 1 mM DMOG or 10 μM DFO, 12 hours
Method: Next whether the ability of SIRT1 to regulate mitochondrial function independently of PGC-1α/β is mediated by HIF-1α was tested. […] Furthermore, cells expressing a mutant allele of HIF-1α that is constitutively stabilized due to the replacement of the two hydroxylated prolines with alanines (DPA) (FIG. 7A), caused genome asynchrony similar to hypoxia and treatment with DMOG (FIG. 7B).
Primary myoblasts cells were isolated from WT, SIRT1 KO (Price et al., 2012) and PGC-1α/β KO (Zechner et al., 2010) mice as previously described (Price et al., 2012). WT and PGC-1α/β KO primary myoblasts were plated and allowed to differentiate into myotubes by replacing the media with low glucose DMEM supplemented with 2% horse serum (Sigma-Aldrich) for 4 days. After the differentiation the cells were infected with empty vector or flag-SIRT1 adenovirus as described before (Gerhart-Hines et al., 2007). Media was replaced with fresh DMEM supplemented with 2% horse serum (Sigma-Aldrich) for an additional 48 hr and, after that the cells were harvested for the different assays as described. To investigate the role of HIF-1α in genome asynchrony, PGC-1α/β KO primary myotubes were treated for 12 hours with 1 mM DMOG (Sigma) or 10 μM DFO (Sigma), 24 h after infection with empty vector of flag-SIRT1 adenovirus or after 12 h treatment with […] NMN (Sigma).
as §1, with “Primers were designed using the IDT software (IDT) and the primer sequences can be found in Table 1.” left out
Protein extracts from tissue or C2C12 cells were obtained by lysis in ice-cold lysis buffer (150 mM NaCl, 10 mM Tris HCl (pH 7.4), 1 mM EDTA, 1 mM EGTA, 1% Triton X-100, 0.5% NP-40) supplemented with a cocktail of protease and phosphatase inhibitors (Roche). Protein content was determined by the Bradford protein assay (Biorad), and 50 μg proteins were run on SDS-PAGE under reducing conditions. […] The immunostaining was detected using horseradish peroxidase-conjugated anti-rabbit or anti-mouse immunoglobulin for 1 h at room temperature.

NC(=O)C1CCCc2c1[nH]c1ccc(Cl)cc21 (stereo not shown) [EX-527]
genome asynchrony [1]: induced
expression of nuclear- and mitochondrial-encoded genes ([2]; in the presence of WT PGC-1α): decreased both nuclear- and mitochondrial-encoded genes
expression of nuclear- and mitochondrial-encoded genes ([2]; in the presence of the PGC-1α T177A/S538A mutant): only the mitochondrial-encoded genes decreased

CC(O)C(=O)O (stereo not shown) [lactate]
HIF-1α protein (immunoblot) [3]: induces HIF-1α protein stabilization
NAD+/NADH ratio [3]: decreasing

CC(=O)N(O)CCCCCNC(=O)CCC(=O)N(O)CCCCCNC(=O)CCC(=O)N(O)CCCCCN [DFO, desferrioxamine]
effect on NMN-induced expression of mitochondrially-encoded ETC genes [4]: completely abolished
effect on induction of mitochondrial ETC genes by SIRT1 overexpression [5]: completely blocked
